According to patent publication US6627227B2, “Use of saw palmetto to prevent atherosclerosis” (priority 2000, dated 2003):

What was measured:
[1] = Retrospective chart review of cardiac events in prostate cancer patients on LHRH inhibitors vs controls; assay type: in vivo; conditions: treated patients vs controls
Method: The patients on either Leuprolide or Goserelin were treated with the recommended doses indicated for the treatment of prostatic carcinoma, at either one or three month intervals depending on the preparation used. Leuprolide was dosed at 7.5 mg monthly (single intramuscular injection) or at 22.5 mg at 3 month intervals (single intramuscular injection). Goserelin was dosed at 3.6 mg monthly or at a dose of 10.8 mg at 3 month intervals (subcutaneous injection). The various groups of office patients were evaluated by chart review. In groups 2 and 3 only those on drug for at least one year were considered. Cardiac event is defined either the history of a heart attack or occurrence of coronary artery bypass or angioplasty. In control groups only events occurring in the 3 years prior to the questionnaire are charted.

[2] = Second study: patient questionnaire, cardiac events in patients taking finasteride; assay type: in vivo; conditions: 4 events over 242 patient-years; control 3.5%/yr.
Method: Finasteride was being administered at a dosage of a single oral 5 mg tablet a day. This is the same tablet used in treatment of BPH as disclosed in U.S. Pat. No. 5,175,155 and such dosage applies in the present invention. However, use of a 2 mg or 10 mg oral tablet is contemplated. In the second study patients of the practice were given a questionnaire. Various patients had been treated with finasteride for varying lengths of time. Only those on the drug for at least one year were considered. The average time on finasteride was 3 years. The number of cardiac events occurring in the patients taking finasteride was only 4 events over 242 patient-years. (1.6%/yr.) In the control group 26 events occurred in the 3 years prior over 732 patient-years. (3.5%/yr.) The 45% decrease observed in cardiac events is believed to be significant. (90% Cl equal to 1.4% to 3.7%)

In the case of `CC(C)C[C@H](NC(=O)[C@@H](COC(C)(C)C)NC(=O)[C@H](Cc1ccc(O)cc1)NC(=O)[C@H](CO)NC(=O)[C@H](Cc1c[nH]c2ccccc12)NC(=O)[C@H](Cc1cnc[nH]1)NC(=O)[C@@H]1CCC(=O)N1)C(=O)N[C@@H](CCCNC(=N)N)C(=O)N1CCC[C@H]1C(=O)NNC(N)=O` [Zoladex, pyro-Glu-His-Trp-Ser-Tyr-D-Ser(Bu^t)-Leu-Arg-Pro-Azgly-NH2 acetate], the “heart attacks compared with controls” value [1] is reported as “fewer heart attacks than controls”.
With `CC(=O)O.CCNC(=O)[C@@H]1CCCN1C(=O)[C@H](CCCNC(=N)N)NC(=O)[C@H](CC(C)C)NC(=O)[C@@H](CC(C)C)NC(=O)[C@H](Cc1ccc(O)cc1)NC(=O)[C@H](CO)NC(=O)[C@H](Cc1c[nH]c2ccccc12)NC(=O)[C@H](Cc1c[nH]cn1)NC(=O)[C@@H]1CCC(=O)N1` [Lupron, 5-oxo-L-prolyl-L-histidyl-L-tryptophyl-L-seryl-L-tyrosyl-D-leucyl-L-leucyl-L-arginyl-N-ethyl-L-prolinamide acetate salt] the “heart attacks compared with controls” value [1] was “fewer heart attacks than controls”.
In the case of `CC(C)(C)NC(=O)[C@H]1CC[C@H]2[C@@H]3CC[C@H]4NC(=O)C=C[C@]4(C)[C@H]3CC[C@]12C` [finasteride, 4-azaandrost-1-ene-17-carboxamide, N-(1,1-dimethylethyl)-3-oxo-(5a 17B)-], the cardiac event rate [2] is reported as 1.6 %/yr.
